Measured values: patent US9056843B2, “Trifluoromethyl-oxadiazole derivatives and their use in the treatment of disease” (NOVARTIS AG, priority 2011, dated 2015)

Legend:
Format in all cases: biochemical
[1] = biological target: Human recombinant HDAC4 (Homo sapiens (Human), UniProt P56524); test: Test 2: HDAC4 assay (fluorogenic substrate, 5 μM acetyl-Gly-Ala-Lys(ε-trifluoroacetyl)-AMC); settings: Test 2 (values without asterisk)
Experimental: Test 2: HDAC4 Assay Description
(§1) Control wells with HDAC4 only (positive control) and without HDAC4 (negative control) were included on the microplate. Bovine trypsin (4.5 μl of a 300 nM solution) was added and the plate incubated for additional 15 minutes at room temperature. The plate was placed in a fluorescence microplate reader, and read at an excitation wavelength of 360 nm and an emission wavelength of 450 nm with a 10 nm bandpath. Fluorescence values for all wells containing HDAC4 (positive control and wells with test compound) were corrected by subtracting negative control fluorescence values, and IC50 values were calculated by fitting the dose-response curves to a 4-parameter logistic function.

[2] = biological target: Human recombinant full length HDAC1 (Homo sapiens (Human), UniProt Q13547); test: Test 3: HDAC1 assay; settings: substrate 5 μM acetyl-Gly-Ala-Lys(acetyl)-AMC
Experimental: as §1
Test 3: HDAC1 Assay Description
A similar assay procedure as described in Test 2 was used for HDAC1. Human recombinant full length HDAC1 expressed in a baculovirus expression system was purchased from BPS BioSciences (San Diego, Calif., U.S.A.). The substrate used in the […] assay was 5 μM of acetyl-Gly-Ala-Lys(acetyl)-AMC.

[3] = biological target: Human recombinant full length HDAC6 (Homo sapiens (Human), UniProt Q9UBN7); test: Test 4: HDAC6 assay; settings: Test 4; substrate 5 μM acetyl-Gly-Ala-Lys(acetyl)-AMC
Experimental: as §1
Test 4: HDAC6 Assay Description
A similar assay procedure as described in Test 2 was used for HDAC6. Human recombinant full length HDAC6 expressed in a baculovirus expression system was purchased from BPS BioSciences (San Diego, Calif., U.S.A.). The substrate used in the […] assay was 5 μM of acetyl-Gly-Ala-Lys(acetyl)-AMC.

Human recombinant full length HDAC1, sequence (Q13547 whole entry): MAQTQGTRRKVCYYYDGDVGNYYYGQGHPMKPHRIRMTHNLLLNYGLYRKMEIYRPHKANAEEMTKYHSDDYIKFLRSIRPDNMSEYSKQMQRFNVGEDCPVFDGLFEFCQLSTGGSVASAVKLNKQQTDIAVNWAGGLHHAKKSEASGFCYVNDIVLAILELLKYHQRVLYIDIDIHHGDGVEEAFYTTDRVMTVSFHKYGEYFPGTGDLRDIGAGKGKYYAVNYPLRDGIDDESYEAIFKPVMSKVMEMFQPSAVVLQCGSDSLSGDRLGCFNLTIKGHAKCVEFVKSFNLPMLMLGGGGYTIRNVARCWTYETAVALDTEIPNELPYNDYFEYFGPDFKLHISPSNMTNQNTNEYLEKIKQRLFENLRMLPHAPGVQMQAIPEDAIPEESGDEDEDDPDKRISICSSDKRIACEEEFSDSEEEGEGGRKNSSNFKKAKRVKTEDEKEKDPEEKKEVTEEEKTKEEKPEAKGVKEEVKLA
Human recombinant full length HDAC6, sequence (Q9UBN7 whole entry): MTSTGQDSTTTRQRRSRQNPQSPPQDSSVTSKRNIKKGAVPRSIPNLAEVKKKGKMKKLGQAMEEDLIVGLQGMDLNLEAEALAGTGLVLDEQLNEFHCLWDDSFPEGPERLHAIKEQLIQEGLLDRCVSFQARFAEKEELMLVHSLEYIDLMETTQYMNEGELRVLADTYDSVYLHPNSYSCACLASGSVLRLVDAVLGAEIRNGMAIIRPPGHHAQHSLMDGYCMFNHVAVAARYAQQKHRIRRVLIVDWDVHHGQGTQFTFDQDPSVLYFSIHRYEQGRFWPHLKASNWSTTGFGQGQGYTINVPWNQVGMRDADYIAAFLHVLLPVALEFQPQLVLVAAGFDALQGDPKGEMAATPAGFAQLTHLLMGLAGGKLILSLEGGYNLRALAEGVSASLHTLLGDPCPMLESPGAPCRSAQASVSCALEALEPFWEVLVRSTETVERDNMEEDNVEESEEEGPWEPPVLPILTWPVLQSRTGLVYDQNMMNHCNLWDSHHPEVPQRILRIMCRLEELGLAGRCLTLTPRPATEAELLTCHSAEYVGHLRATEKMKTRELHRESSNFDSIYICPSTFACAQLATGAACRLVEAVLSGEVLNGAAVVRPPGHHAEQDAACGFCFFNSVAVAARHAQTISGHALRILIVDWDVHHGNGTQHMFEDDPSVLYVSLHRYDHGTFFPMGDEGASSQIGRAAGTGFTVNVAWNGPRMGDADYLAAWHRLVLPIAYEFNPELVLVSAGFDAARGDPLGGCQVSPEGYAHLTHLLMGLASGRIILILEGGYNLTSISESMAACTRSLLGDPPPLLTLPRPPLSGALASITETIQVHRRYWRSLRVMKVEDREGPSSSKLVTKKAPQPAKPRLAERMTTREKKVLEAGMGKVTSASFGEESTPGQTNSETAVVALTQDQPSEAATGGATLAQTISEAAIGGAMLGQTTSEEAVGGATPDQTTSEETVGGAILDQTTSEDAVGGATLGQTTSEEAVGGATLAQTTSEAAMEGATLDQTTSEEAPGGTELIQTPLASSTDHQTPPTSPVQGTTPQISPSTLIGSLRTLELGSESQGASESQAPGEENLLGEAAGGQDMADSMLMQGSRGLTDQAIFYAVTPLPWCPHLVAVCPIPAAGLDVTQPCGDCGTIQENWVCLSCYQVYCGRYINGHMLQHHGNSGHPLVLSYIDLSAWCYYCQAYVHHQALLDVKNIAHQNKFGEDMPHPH
Human recombinant HDAC4, sequence (P56524 2-1084): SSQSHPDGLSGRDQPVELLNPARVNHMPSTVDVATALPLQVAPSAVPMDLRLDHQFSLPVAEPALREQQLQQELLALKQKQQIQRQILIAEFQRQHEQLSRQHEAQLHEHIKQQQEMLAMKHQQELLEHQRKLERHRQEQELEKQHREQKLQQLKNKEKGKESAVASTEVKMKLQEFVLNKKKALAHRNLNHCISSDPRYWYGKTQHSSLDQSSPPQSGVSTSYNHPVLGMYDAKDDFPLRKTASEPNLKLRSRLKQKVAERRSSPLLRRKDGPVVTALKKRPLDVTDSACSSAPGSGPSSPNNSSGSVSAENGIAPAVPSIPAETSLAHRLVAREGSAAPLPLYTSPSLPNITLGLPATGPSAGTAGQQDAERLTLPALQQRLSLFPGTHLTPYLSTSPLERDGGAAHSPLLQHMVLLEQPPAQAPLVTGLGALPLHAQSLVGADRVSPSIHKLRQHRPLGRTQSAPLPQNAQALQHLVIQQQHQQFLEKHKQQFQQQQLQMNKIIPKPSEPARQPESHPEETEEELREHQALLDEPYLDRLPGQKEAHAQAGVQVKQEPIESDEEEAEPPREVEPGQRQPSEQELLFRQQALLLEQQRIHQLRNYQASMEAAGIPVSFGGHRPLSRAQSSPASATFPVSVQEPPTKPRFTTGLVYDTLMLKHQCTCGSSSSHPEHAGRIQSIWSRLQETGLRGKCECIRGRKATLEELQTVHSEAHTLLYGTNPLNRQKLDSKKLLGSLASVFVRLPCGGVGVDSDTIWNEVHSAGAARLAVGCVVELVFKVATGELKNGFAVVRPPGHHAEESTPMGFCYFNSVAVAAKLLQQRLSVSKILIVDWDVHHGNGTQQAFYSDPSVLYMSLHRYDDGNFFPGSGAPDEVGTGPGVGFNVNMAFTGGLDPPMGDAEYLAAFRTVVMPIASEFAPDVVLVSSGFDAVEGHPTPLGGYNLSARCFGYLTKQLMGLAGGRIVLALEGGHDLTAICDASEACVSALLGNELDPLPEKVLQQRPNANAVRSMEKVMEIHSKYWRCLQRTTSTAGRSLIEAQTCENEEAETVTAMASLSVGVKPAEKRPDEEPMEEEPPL

SMILES	IC50 [1] [µM]	IC50 [2] [µM]	IC50 [3] [µM]
CN(C)C(=O)CNC(=O)c1ccc(-c2noc(C(F)(F)F)n2)cc1 [Example 52, N-(2-(dimethylamino)-2-oxoethyl)-4-(5-(trifluoromethyl)-1,2,4-oxadiazol-3-yl)benzamide]	3.2	> 10	> 10
CC(C)[C@H](CN(C)C)NC(=O)c1ccc(-c2noc(C(F)(F)F)n2)cc1F [Example 89, (R)—N-(1-(dimethylamino)-3-methylbutan-2-yl)-2-fluoro-4-(5-(trifluoromethyl)-1,2,4-oxadiazol-3-yl)benzamide]	0.045	> 10	> 10
O=S(=O)(N[C@@H]1CCNC1)c1ccc(-c2noc(C(F)(F)F)n2)cc1 [Example 102, (R)—N-(pyrrolidin-3-yl)-4-(5-(trifluoromethyl)-1,2,4-oxadiazol-3-yl)benzenesulfonamide]	3.2	> 10	> 10
O=C(N[C@@H]1CCNC1)c1ccc(-c2noc(C(F)(F)F)n2)cc1 [Example 86, (R)—N-(pyyrrolidin-3-yl)-4-(5-(trifluoromethyl)-1,2,4-oxadiazol-3-yl)benzamide]	0.026	> 10	> 10
O=S(=O)(Nc1ccc(Cl)cc1)c1ccc(-c2noc(C(F)(F)F)n2)cc1 [Example 110, N-(4-chlorophenyl)-4-(5-(trifluoromethyl)-1,2,4-oxadiazol-3-yl)benzenesulfonamide]	0.2	> 10	2
C[C@H](CN(C)C)NC(=O)c1ccc(-c2noc(C(F)(F)F)n2)cc1F [Example 88, (R)—N-(1-(dimethylamino)propan-2-yl)-2-fluoro-4-(5-(trifluoromethyl)-1,2,4-oxadiazol-3-yl)benzamide]	0.012	> 10	4.7
CCN(CC)C[C@@H](C)NC(=O)c1ccc(-c2noc(C(F)(F)F)n2)cc1 [Example 132, (R)—N-(1-(diethylamino)propan-2-yl)-4-(5-(trifluoromethyl)-1,2,4-oxadiazol-3-yl)benzamide]	0.005	9.2	8.3
O=C(NCC1CC1)c1ccc(-c2noc(C(F)(F)F)n2)cc1 [Example 26, N-(cyclopropylmethyl)-4-(5-(trifluoromethyl)-1,2,4-oxadiazol-3-yl)benzamide]	0.61	> 10	3.2
O=S(=O)(Nc1ccc(F)cc1)c1ccc(-c2noc(C(F)(F)F)n2)cc1 [Example 109, N-(4-fluorophenyl)-4-(5-(trifluoromethyl)-1,2,4-oxadiazol-3-yl)benzenesulfonamide]	0.097	> 10	0.44
CC(CN(C)C)NC(=O)c1ccc(-c2noc(C(F)(F)F)n2)cc1 (stereo not drawn) [Example 53, N-(1-(dimethylamino)propan-2-yl)-4-(5-(trifluoromethyl)-1,2,4-oxadiazol-3-yl)benzamide]	0.026	> 10	> 10
CNC(=O)c1ccc(-c2noc(C(F)(F)F)n2)cc1 [Example 2, N-Methyl-4-(5-(trifluoromethyl)-1,2,4-oxadiazol-3-yl)benzamide]	0.53	> 10	3.2
C[C@H](CO)NC(=O)c1ccc(-c2noc(C(F)(F)F)n2)cc1 [Example 28, (R)—N-(1-hydroxyypropan-2-yl)-4-(5-(trifluoromethyl)-1,2,4-oxadiazol-3-yl)benzamide]	0.35	> 10	7.7
CN(C)S(=O)(=O)c1ccc(-c2noc(C(F)(F)F)n2)cc1 [Example 114, N,N-dimethyl-4-(5-(trifluoromethyl)-1,2,4-oxadiazol-3-yl)benzenesulfonamide]	0.63	> 10	9.1
CC(CN(C)C)N(C)C(=O)c1ccc(-c2noc(C(F)(F)F)n2)cc1F (stereo not drawn) [Example 144, N-(1-(dimethylamino)propan-2-yl)-2-fluoro-N-methyl-4-(5-(trifluoromethyl)-1,2,4-oxadiazol-3-yl)benzamide]	0.18	> 10	> 10
CC(CN(C)C)N(C)C(=O)c1ccc(-c2noc(C(F)(F)F)n2)cc1 (stereo not drawn) [Example 94, N-(1-(dimethylamino)propan-2-yl)-N-methyl-4-(5-(trifluoromethyl)-1,2,4-oxadiazol-3-yl)benzamide]	0.52	> 10	> 10
C[C@H](CN1CCCC1)NC(=O)c1ccc(-c2noc(C(F)(F)F)n2)cc1 [Example 130, (R)—N-(1-(pyrrolidin-1-yl)propan-2-yl)-4-(5-(trifluoromethyl)-1,2,4-oxadiazol-3-yl)benzamide]	0.011	> 10	9.1
O=C(NCCNc1ccccc1)c1ccc(-c2noc(C(F)(F)F)n2)cc1 [Example 158, N-(2-(phenylamino)ethyl)-4-(5-(trifluoromethyl)-1,2,4-oxadiazol-3-yl)benzamide]	0.36	8.8	1.8
CN(C)CCCNS(=O)(=O)c1ccc(-c2noc(C(F)(F)F)n2)cc1 [Example 113, N-(3-(dimethylamino)propyl)-4-(5-(trifluoromethyl)-1,2,4-oxadiazol-3-yl)benzenesulfonamide]	0.3	> 10	6.2
CN(C)CC(C)(C)NC(=O)c1ccc(-c2noc(C(F)(F)F)n2)cc1 [Example 119, N-(1-(dimethylamino)-2-methylpropan-2-yl)-4-(5-(trifluoromethyl)-1,2,4-oxadiazol-3-yl)benzamide]	0.036	> 10	> 10
C[C@H](CN1CCCCC1)NC(=O)c1ccc(-c2noc(C(F)(F)F)n2)cc1 [Example 131, (R)—N-(1-(piperidin-1-yl)propan-2-yl)-4-(5-(trifluoromethyl)-1,2,4-oxadiazol-3-yl)benzamide]	0.01	6.55	7.5
CN(C)C[C@H](Cc1ccccc1)NC(=O)c1ccc(-c2noc(C(F)(F)F)n2)cc1 [Example 93, (S)—N-(1-(dimethylamino)-3-phenylpropan-2-yl)-4-(5-(trifluoromethyl)-1,2,4-oxadiazol-3-yl)benzamide]	0.19	> 10	4.9
O=C(Nc1ccnc(F)c1)c1ccc(-c2noc(C(F)(F)F)n2)cc1 [Example 71, N-(2-fluoropyridin-4-yl)-4-(5-(trifluoromethyl)-1,2,4-oxadiazol-3-yl)benzamide]	0.92	> 10	> 10
CN1CCC(NC(=O)c2ccc(-c3noc(C(F)(F)F)n3)cc2)CC1 [Example 38, N-(1-methylpiperidin-4-yl)-4-(5-(trifluoromethyl)-1,2,4-oxadiazol-3-yl)benzamide]	0.3	> 10	3.9
CC(CNC(=O)c1ccc(-c2noc(C(F)(F)F)n2)cc1F)N(C)C (stereo not drawn) [Example 122, N-(2-(dimethylamino)propyl)-2-fluoro-4-(5-(trifluoromethyl)-1,2,4-oxadiazol-3-yl)benzamide]	0.085	9	2.4
CN(C)CCCN(C)S(=O)(=O)c1ccc(-c2noc(C(F)(F)F)n2)cc1 [Example 112, N-(3-(dimethylamino)propyl)-N-methyl-4-(5-(trifluoromethyl)-1,2,4-oxadiazol-3-yl)benzenesulfonamide]	0.82	> 10	9.1
CC(C)(C)c1cc(NC(=O)c2ccc(-c3noc(C(F)(F)F)n3)cc2)ccn1 [Example 69, N-(2-(tert-butyl)pyridin-4-yl)-4-(5-(trifluoromethyl)-1,2,4-oxadiazol-3-yl)benzamide]	0.29	> 10	6.8
C[C@H](CN1CCOCC1)NC(=O)c1ccc(-c2noc(C(F)(F)F)n2)cc1 [Example 147, (R)—N-(1-morpholinopropan-2-yl)-4-(5-(trifluoromethyl)-1,2,4-oxadiazol-3-yl)benzamide]	0.3	> 10	6.7
CCCN(CCC)C[C@@H](C)NC(=O)c1ccc(-c2noc(C(F)(F)F)n2)cc1F [Example 141, (R)—N-(1-(dipropylamino)propan-2-yl)-2-fluoro-4-(5-(trifluoromethyl)-1,2,4-oxadiazol-3-yl)benzamide]	0.0014	4.2	1.4
CC(C)(C)OC(=O)NC1CCCCC1NC(=O)c1ccc(-c2noc(C(F)(F)F)n2)cc1 (stereo not drawn) [Example 60, tert-butyl (2-(4-(5-(trifluoromethyl)-1,2,4-oxadiazol-3-yl)benzamido)cyclohexyl)carbamate]	2.5	> 10	2.2
O=S(=O)(Nc1cccc(Cl)c1)c1ccc(-c2noc(C(F)(F)F)n2)cc1 [Example 107, N-(3-chlorophenyl)-4-(5-(trifluoromethyl)-1,2,4-oxadiazol-3-yl)benzenesulfonamide]	0.79	6.2	0.46
